Data: PubChem BioAssay (NCI)
Values joined by “and” are separate entries in the source; they are usually repeats but may differ in a detail not shown here. Identical values can stand only once.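 Test compounds were applied to cells in 96-well plates for 48 hours at 5 doses. Here, GI50 denotes the concentration required for 50% inhibition of growth. The concentration for full growth arrest is given as TGI.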

Columns and labels:
Assay in all cases: growth of human tumour cells (NCI), 48 h
[1] = system: HCC-2998 colon
[2] = system: HCT-116 colon
[3] = system: HOP-62 NSCLC
[4] = system: HT29 colon
[5] = system: IGROV1 ovarian
[6] = system: MALME-3M melanoma
[7] = system: NCI-H522 lung
[8] = system: OVCAR-3 ovarian
[9] = system: SK-OV-3 ovarian
[10] = system: TK-10 renal

SMILES | GI50 [1] | TGI [1] | GI50 [2] | TGI [2] | GI50 [3] | TGI [3] | GI50 [4] | TGI [4] | GI50 [5] | TGI [5] | GI50 [6] | TGI [6] [µM] | GI50 [7] | TGI [7] | GI50 [8] | TGI [8] | GI50 [9] | TGI [9] | GI50 [10] | TGI [10]
CNC(=O)CN1CCC(Oc2cc3c(Nc4cccc(Cl)c4F)ncnc3cc2OC)CC1 | 15900 nM and > 7700 nM | 34.6 µM and > 10 µM | 14.8 µM and > 5.44 µM | 28.5 µM and > 10 µM | 7910 nM and 3950 nM | 70.4 µM and > 10 µM | 11600 nM and > 7060 nM | 32.6 µM and > 10 µM | 303 nM and 84 nM | 5.37 µM and 4.3 µM | 16.1 µM and > 10 µM | > 58 | 143 nM and 61.4 nM | 20.4 µM and > 10 µM | 3830 nM and 2340 nM | 18.8 µM and > 10 µM | 167 nM and 153 nM | 5.73 µM and 1.82 µM | 23.7 nM and 7.44 nM | 14.8 µM and > 10 µM
c1ccc2c(c1)[nH]c1c2ncc2[nH]c3ccccc3c21 | – | 7.07 µM | – | 3.35 µM | – | 19.4 µM | – | 11.1 µM | – | 22.5 µM | – | 47.1 | – | 21 µM | – | 6.96 µM | – | 28.7 µM | – | 20.1 µM
C[C@@H]1OCC2(CCN(c3cnc(Sc4ccnc(N)c4Cl)c(N)n3)CC2)[C@@H]1N | > 100000 nM | > 100 µM | > 100 µM | > 100 µM | 14200 nM | > 100 µM | > 100000 nM | > 100 µM | 801 nM | > 100 µM | > 100 µM | > 100 | 7980 nM | > 100 µM | > 100000 nM | > 100 µM | 1040 nM | > 100 µM | 253 nM | > 100 µM
Nc1c2ccccc2nc2ccccc12 (tested in a mixture with another compound) | 1850 nM | 4.6 µM | 0.849 µM | 8.48 µM | 1540 nM | 4.01 µM | 1080 nM | 3.48 µM | 2720 nM | 7.89 µM | 2.34 µM | 5.28 | 1170 nM | 2.73 µM | 2290 nM | 6.15 µM | 2390 nM | 10.5 µM | 1970 nM | 5.34 µM
Nc1nc(-c2cccs2)cs1 | – | > 100 µM | – | > 100 µM | – | > 100 µM | – | > 100 µM | – | > 100 µM | – | > 100 | – | > 100 µM | – | > 100 µM | – | > 100 µM | – | > 100 µM
Cc1ccccc1NC(=O)c1ccc([N+](=O)[O-])cc1 | – | > 100 µM | – | > 100 µM | – | > 100 µM | – | > 100 µM | – | > 100 µM | – | > 100 | – | > 100 µM | – | > 100 µM | – | > 100 µM | – | > 100 µM
Cc1cc2nc(C(Cl)Cl)nc(-c3ccccc3)n2n1 | 1790 nM | 3.49 µM | 3.45 µM | 24 µM | 2480 nM | 8.64 µM | 2770 nM | 13.9 µM | 5240 nM | 35.1 µM | 9.11 µM | 28.1 | 4270 nM | > 100 µM | 2110 nM | 4.53 µM | 3340 nM | 21.5 µM | 4730 nM | 51.2 µM
CCN1CCN(c2ccc(Nc3ncc4ccc5ncn(C(C)C)c5c4n3)nc2)CC1 | 161 nM | 1.43 µM | 0.0312 µM | 0.55 µM | 92.3 nM | 3.22 µM | 48.9 nM | 15.5 µM | 34.7 nM | 1.6 µM | 0.134 µM | 1.69 | 208 nM | 0.809 µM | 192 nM | 0.523 µM | 271 nM | 0.847 µM | 35.9 nM | 0.873 µM
CCN(CC)CC[n+]1cc2cc(OC)c(OC)cc2c2ccc3cc4c(cc3c21)OCO4 | 725 nM | 2.15 µM | 0.404 µM | 1.66 µM | 354 nM | 1.93 µM | 321 nM | 1.36 µM | 649 nM | 2.67 µM | 1.1 µM | 2.5 | 255 nM | 1.05 µM | 960 nM | 2.33 µM | 520 nM | 2.08 µM | 1810 nM | 5.28 µM
Cc1nn(C)c2cc(N(C)c3ccnc(Nc4cccc(S(N)(=O)=O)c4)n3)ccc12 | 15700 nM | > 25 µM | 7.43 µM | > 25 µM | > 15000 nM | > 25 µM | 6100 nM | > 25 µM | 5980 nM | > 18.9 µM | 4.72 µM | 21.8 | 3460 nM | 19.2 µM | 8190 nM | > 25 µM | > 11800 nM | > 25 µM | 5930 nM | 24.4 µM
COc1cc(N2CCC(N3CCN(C)CC3)CC2)ccc1Nc1ncc(Cl)c(Nc2ccccc2S(=O)(=O)C(C)C)n1 | 1070 nM | 2.39 µM | 0.358 µM | 1.64 µM | 414 nM | 7.98 µM | 61.2 nM | 0.617 µM | 1390 nM | 9.2 µM | 1.32 µM | 3.46 | 525 nM | 2.03 µM | 2220 nM | 6.87 µM | 1830 nM | 4.02 µM | 790 nM | 2.43 µM
COC(=O)C(=O)C(C(=O)OC)C(=O)C(=O)Nc1cc(Cl)c(Cl)cc1Cl (stereo not given) | – | > 100 µM | – | 75.8 µM | – | > 100 µM | – | > 100 µM | – | > 100 µM | – | > 100 | – | > 100 µM | – | > 100 µM | – | > 100 µM | – | > 100 µM
CCOC(=O)NC1CC2CCC1(OC)C=C2C (stereo not given) | – | > 100 µM | – | > 100 µM | – | > 100 µM | – | > 100 µM | – | > 100 µM | – | > 100 | – | > 100 µM | – | > 100 µM | – | > 100 µM | – | > 100 µM
C[CH2][Sn]([CH2]C)([O]C(=O)c1ccc(F)cc1)[O][Sn]([CH2]C)([CH2]C)[O]C(=O)c1ccc(F)cc1 | > 100000 nM | > 100 µM | > 100 µM | > 100 µM | > 100000 nM | > 100 µM | > 100000 nM | > 100 µM | > 100000 nM | > 100 µM | 16.9 µM | 32 | 3010 nM | 12.4 µM | > 100000 nM | > 100 µM | > 100000 nM | > 100 µM | 23500 nM | 62.3 µM
